# Measured values reported in patent US20020137929A1, “1 - (3-heterocyclylphenyl) isothiourea, -isourea, -guanidine and -amidine herbicidal agents” (Intellectual Property Department, BASF Aktiengesellschaft, priority 1998, published 2002).
# How the values were obtained:
# AMBEL (Ragweed, Common) = experiment: Postemergence herbicidal evaluation; assay type: in vivo, Ambrosia artemisifolia
# Procedure, shortened: (§1)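 Rate range approx. 0.0156–0.500 kg/ha. Foliar application at 40 psi to ~2-week seedlings; surfactant 0.5% TWEEN 20 in 50/50 acetone/water. Evaluation 4–5 wk post-treatment by 0–9 visual injury score, means of replicate tests.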
# CASOB (Sicklepod) [1] = experiment: Postemergence herbicidal evaluation; assay type: in vivo, Cassia obtusifolia
# Procedure, shortened: as §1
# GALAP (Galium) = experiment: Postemergence herbicidal evaluation; assay type: in vivo, Galium aparine
# Procedure, shortened: as §1
# [2] = test system: IPOHE (Morningglory, Ivyleaf); experiment: Postemergence herbicidal evaluation; assay type: in vivo, Ipomoea hederacea
# Procedure, shortened: as §1
# ABUTH (Velvetleaf) = experiment: Preemergence herbicidal evaluation; assay type: in vivo, Abutilon theophrasti; conditions: rated 4-5 weeks after treatment
# Procedure, shortened: (§2)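 Scores (0–9) reflect visual comparison with control plants for stand, vigor, malformation, size and chlorosis. Compound was applied to the soil after sowing, before emergence, as an aqueous acetone spray (about 0.0156–0.500 kg/ha), and cups were kept in a greenhouse for 4–5 weeks.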
# CASOB (Sicklepod) [3] = experiment: Preemergence herbicidal evaluation; assay type: in vivo, Cassia obtusifolia; conditions: rated 4-5 weeks after treatment
# Procedure, shortened: as §2
# [4] = test system: IPOHE (Morningglory, Ivyleaf); experiment: Preemergence herbicidal evaluation; assay type: in vivo, Ipomoea hederacea; conditions: rated 4-5 weeks after treatment
# Procedure, shortened: as §2
# ECHCG (Barnyardgrass) = experiment: Preemergence herbicidal evaluation; assay type: in vivo, Echinochloa crus-galli; conditions: rated 4-5 weeks after treatment
# Procedure, shortened: as §2
# [5] = test system: GLXMAW (Soybean, Williams); experiment: Preemergence herbicidal evaluation; assay type: in vivo, Glycine max, (L.) Merr. cv Williams; conditions: rated 4-5 weeks after treatment
# Procedure, shortened: as §2
# [6] = test system: TRZAWR (Wheat, Winter, cv Riband); experiment: Preemergence herbicidal evaluation; assay type: in vivo, Triticum aestivum; conditions: rated 4-5 weeks after treatment
# Procedure, shortened: as §2
# ZEAMX (Corn, Field) = experiment: Preemergence herbicidal evaluation; assay type: in vivo, Zea mays; conditions: rated 4-5 weeks after treatment
# Procedure, shortened: as §2
# MOOVA (Monochoria) = experiment: Preemergence weed control under flooded paddy conditions; assay type: in vivo, Monochoria vaginalis; conditions: rated 3-4 weeks after treatment
# Procedure, shortened: (§3)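 Flooded-pot preemergence screen with silt loam and seeds in the upper 0.5 cm. Dose about 0.0313 to 0.500 kg/ha, delivered into flood water; visual 0-9 score after 3 to 4 weeks.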
# [7] = test system: SAGPY (Arrowhead (Pygmaea)); experiment: as above; assay type: in vivo, Sagittaria pygmaea; conditions: rated 3-4 weeks after treatment
# Procedure, shortened: as §3
# CYPIR (Rice Flatsedge) = experiment: Postemergence weed control under flooded paddy conditions; assay type: in vivo, Cyperus iria; conditions: postemergence weeds, 3-4 weeks after treatment
# Procedure, shortened: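 Containers holding 3–5 cm weeds and rice at 1.5–2.5 leaves are flooded to 1.5–3 cm above soil. Compound in 50/50 v/v aqueous/acetone is then added directly to the water, about 0.0313–0.500 kg/ha. Plants are kept in the greenhouse and rated 0–9 visually at 3–4 weeks.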
structure (smiles),measurement,setting,value
"Cn1c(C(F)(F)F)cc(=O)n(-c2cc(N=C3SCC(=O)N3CCC(=O)O)c(Cl)cc2F)c1=O [Compound 31, 2-{{2-Chloro-5-[3,6-dihydro-3-methyl-2,6-dioxo-4-(trifluoromethyl)-1(2H)-pyrimidinyl]-4-fluoro-phenyl}imino}-4-oxo-3-thiazolidinepropionic acid]",Postemergence herbicidal rating AMBEL,"AMBEL (Ragweed, Common); Rate 0.0158 kg/ha",0.0
same,Postemergence herbicidal rating AMBEL,"AMBEL (Ragweed, Common); Rate 0.0315 kg/ha",2.0
same,Postemergence herbicidal rating AMBEL,"AMBEL (Ragweed, Common); Rate 0.0630 kg/ha",7.0
same,Postemergence herbicidal rating CASOB,CASOB (Sicklepod) [1]; Rate 0.0158 kg/ha,0.0
same,Postemergence herbicidal rating CASOB,CASOB (Sicklepod) [1]; Rate 0.0315 kg/ha,0.0
same,Postemergence herbicidal rating CASOB,CASOB (Sicklepod) [1]; Rate 0.0630 kg/ha,0.0
same,Postemergence herbicidal rating GALAP,GALAP (Galium); Rate 0.0158 kg/ha,0.0
same,Postemergence herbicidal rating GALAP,GALAP (Galium); Rate 0.0315 kg/ha,1.0
same,Postemergence herbicidal rating GALAP,GALAP (Galium); Rate 0.0630 kg/ha,3.0
same,Postemergence herbicidal rating IPOHE,[2]; Rate 0.0158 kg/ha,9.0
same,Postemergence herbicidal rating IPOHE,[2]; Rate 0.0315 kg/ha,9.0
same,Postemergence herbicidal rating IPOHE,[2]; Rate 0.0630 kg/ha,9.0
same,Preemergence herbicidal rating ABUTH,ABUTH (Velvetleaf); rate 0.0625 kg/ha,0.0
same,Preemergence herbicidal rating ABUTH,ABUTH (Velvetleaf); rate 0.1250 kg/ha,9.0
same,Preemergence herbicidal rating ABUTH,ABUTH (Velvetleaf); rate 0.2500 kg/ha,9.0
same,Preemergence herbicidal rating CASOB,CASOB (Sicklepod) [3]; rate 0.0625 kg/ha,0.0
same,Preemergence herbicidal rating CASOB,CASOB (Sicklepod) [3]; rate 0.1250 kg/ha,2.0
same,Preemergence herbicidal rating CASOB,CASOB (Sicklepod) [3]; rate 0.2500 kg/ha,1.0
same,Preemergence herbicidal rating IPOHE,[4]; rate 0.0625 kg/ha,0.0
same,Preemergence herbicidal rating IPOHE,[4]; rate 0.1250 kg/ha,5.0
same,Preemergence herbicidal rating IPOHE,[4]; rate 0.2500 kg/ha,9.0
same,Preemergence herbicidal rating ECHCG,ECHCG (Barnyardgrass); rate 0.0625 kg/ha,0.0
same,Preemergence herbicidal rating ECHCG,ECHCG (Barnyardgrass); rate 0.1250 kg/ha,9.0
same,Preemergence herbicidal rating ECHCG,ECHCG (Barnyardgrass); rate 0.2500 kg/ha,9.0
same,Preemergence herbicidal rating GLXMAW,[5]; rate 0.0625 kg/ha,3.0
same,Preemergence herbicidal rating GLXMAW,[5]; rate 0.1250 kg/ha,5.0
same,Preemergence herbicidal rating GLXMAW,[5]; rate 0.2500 kg/ha,6.0
same,Preemergence herbicidal rating TRZAWR,[6]; rate 0.0625 kg/ha,0.0
same,Preemergence herbicidal rating TRZAWR,[6]; rate 0.1250 kg/ha,3.0
same,Preemergence herbicidal rating TRZAWR,[6]; rate 0.2500 kg/ha,7.0
same,Preemergence herbicidal rating ZEAMX,"ZEAMX (Corn, Field); rate 0.0625 kg/ha",3.0
same,Preemergence herbicidal rating ZEAMX,"ZEAMX (Corn, Field); rate 0.1250 kg/ha",7.0
same,Preemergence herbicidal rating ZEAMX,"ZEAMX (Corn, Field); rate 0.2500 kg/ha",9.0
same,Herbicidal rating MOOVA,MOOVA (Monochoria); 0.0625 kg/ha,0.0
same,Herbicidal rating MOOVA,MOOVA (Monochoria); 0.1250 kg/ha,0.0
same,Herbicidal rating MOOVA,MOOVA (Monochoria); 0.2500 kg/ha,2.5
same,Herbicidal rating SAGPY,[7]; 0.0625 kg/ha,0.0
same,Herbicidal rating SAGPY,[7]; 0.1250 kg/ha,0.0
same,Herbicidal rating SAGPY,[7]; 0.2500 kg/ha,0.0
same,Herbicidal rating CYPIR,CYPIR (Rice Flatsedge); rate 0.0625 kg/ha,0.0
same,Herbicidal rating CYPIR,CYPIR (Rice Flatsedge); rate 0.1250 kg/ha,0.0
same,Herbicidal rating CYPIR,CYPIR (Rice Flatsedge); rate 0.2500 kg/ha,2.5
"Cn1c(C(F)(F)F)cc(=O)n(-c2cc(N=C3SCC(=O)N3CCC(=O)O)c(Cl)cc2F)c1=O [Compound 30, 2-{{2-Chloro-5-[3,6-dihydro-3-methyl-2,6-dioxo-4-(trifluoromethyl)-1(2H)-pyrimidinyl]-4-fluorophenyl}imino}-4-oxo-3-thiazolidinepropionic acid]",Postemergence herbicidal rating AMBEL,"AMBEL (Ragweed, Common); Rate 0.0158 kg/ha",0.0
same,Postemergence herbicidal rating AMBEL,"AMBEL (Ragweed, Common); Rate 0.0315 kg/ha",0.0
same,Postemergence herbicidal rating AMBEL,"AMBEL (Ragweed, Common); Rate 0.0630 kg/ha",1.0
same,Postemergence herbicidal rating CASOB,CASOB (Sicklepod) [1]; Rate 0.0158 kg/ha,0.0
same,Postemergence herbicidal rating CASOB,CASOB (Sicklepod) [1]; Rate 0.0315 kg/ha,0.0
same,Postemergence herbicidal rating CASOB,CASOB (Sicklepod) [1]; Rate 0.0630 kg/ha,0.0
same,Postemergence herbicidal rating GALAP,GALAP (Galium); Rate 0.0158 kg/ha,0.0
same,Postemergence herbicidal rating GALAP,GALAP (Galium); Rate 0.0315 kg/ha,0.0
same,Postemergence herbicidal rating GALAP,GALAP (Galium); Rate 0.0630 kg/ha,0.0
same,Postemergence herbicidal rating IPOHE,[2]; Rate 0.0158 kg/ha,0.0
same,Postemergence herbicidal rating IPOHE,[2]; Rate 0.0315 kg/ha,0.0
same,Postemergence herbicidal rating IPOHE,[2]; Rate 0.0630 kg/ha,9.0
same,Preemergence herbicidal rating ABUTH,ABUTH (Velvetleaf); rate 0.0313 kg/ha,9.0
same,Preemergence herbicidal rating ABUTH,ABUTH (Velvetleaf); rate 0.0625 kg/ha,9.0
same,Preemergence herbicidal rating ABUTH,ABUTH (Velvetleaf); rate 0.1250 kg/ha,9.0
same,Preemergence herbicidal rating ABUTH,ABUTH (Velvetleaf); rate 0.2500 kg/ha,9.0
same,Preemergence herbicidal rating CASOB,CASOB (Sicklepod) [3]; rate 0.0313 kg/ha,0.0
same,Preemergence herbicidal rating CASOB,CASOB (Sicklepod) [3]; rate 0.0625 kg/ha,0.0
same,Preemergence herbicidal rating CASOB,CASOB (Sicklepod) [3]; rate 0.1250 kg/ha,1.0
same,Preemergence herbicidal rating CASOB,CASOB (Sicklepod) [3]; rate 0.2500 kg/ha,1.0
same,Preemergence herbicidal rating IPOHE,[4]; rate 0.0313 kg/ha,0.0
same,Preemergence herbicidal rating IPOHE,[4]; rate 0.0625 kg/ha,0.0
same,Preemergence herbicidal rating IPOHE,[4]; rate 0.1250 kg/ha,1.0
same,Preemergence herbicidal rating IPOHE,[4]; rate 0.2500 kg/ha,2.0
same,Preemergence herbicidal rating ECHCG,ECHCG (Barnyardgrass); rate 0.0313 kg/ha,0.0
same,Preemergence herbicidal rating ECHCG,ECHCG (Barnyardgrass); rate 0.0625 kg/ha,0.0
same,Preemergence herbicidal rating ECHCG,ECHCG (Barnyardgrass); rate 0.1250 kg/ha,0.0
same,Preemergence herbicidal rating ECHCG,ECHCG (Barnyardgrass); rate 0.2500 kg/ha,0.0
same,Preemergence herbicidal rating GLXMAW,[5]; rate 0.0313 kg/ha,2.0
same,Preemergence herbicidal rating GLXMAW,[5]; rate 0.0625 kg/ha,3.0
same,Preemergence herbicidal rating GLXMAW,[5]; rate 0.1250 kg/ha,1.0
same,Preemergence herbicidal rating GLXMAW,[5]; rate 0.2500 kg/ha,4.0
same,Preemergence herbicidal rating TRZAWR,[6]; rate 0.0313 kg/ha,0.0
same,Preemergence herbicidal rating TRZAWR,[6]; rate 0.0625 kg/ha,1.0
same,Preemergence herbicidal rating TRZAWR,[6]; rate 0.1250 kg/ha,2.0
same,Preemergence herbicidal rating TRZAWR,[6]; rate 0.2500 kg/ha,6.0
same,Preemergence herbicidal rating ZEAMX,"ZEAMX (Corn, Field); rate 0.0313 kg/ha",1.0
same,Preemergence herbicidal rating ZEAMX,"ZEAMX (Corn, Field); rate 0.0625 kg/ha",3.0
same,Preemergence herbicidal rating ZEAMX,"ZEAMX (Corn, Field); rate 0.1250 kg/ha",3.0
same,Preemergence herbicidal rating ZEAMX,"ZEAMX (Corn, Field); rate 0.2500 kg/ha",6.0
same,Herbicidal rating MOOVA,MOOVA (Monochoria); 0.1250 kg/ha,1.5
same,Herbicidal rating MOOVA,MOOVA (Monochoria); 0.2500 kg/ha,4.5
same,Herbicidal rating SAGPY,[7]; 0.1250 kg/ha,0.0
same,Herbicidal rating SAGPY,[7]; 0.2500 kg/ha,2.0
same,Herbicidal rating CYPIR,CYPIR (Rice Flatsedge); rate 0.1250 kg/ha,2.0
same,Herbicidal rating CYPIR,CYPIR (Rice Flatsedge); rate 0.2500 kg/ha,4.5
